Counter-ions that a name gives are not always drawn.
Tests used:
Format in all cases: cell-based
HTT mRNA = assay: Splicing assay (RT-qPCR) monitoring HTT splice variants, canonical (CJ) and alternative (AJ) junction; settings: 50% response, A673 or K562 cell line, 24 hours; for IC50: decrease in CJ mRNA; for AC50: increase in AJ mRNA
Protocol: (§1) Compounds described herein were used to modulate RNA transcript abundance in cells. The expression of a target mRNA was measured by detecting the formation of an exon-exon junction in the canonical transcript (CJ). A compound mediated exon-inclusion event was detected by observing an increase in formation of a new junction with an alternative exon (AJ). Real-time qPCR assays were used to detect these splicing switches and interrogate the potency of various compounds towards different target genes. A high-throughput real time quantitative PCR (RT-qPCR) assay was developed to measure these two isoforms of the mRNA (CJ and AJ) for an exemplary gene, HTT, together with a control housekeeping gene, GAPDH or GUSB or PPIA, used for normalization. Briefly, the A673 or K562 cell line was treated with various compounds described herein (e.g., compounds of Formula (I)). After treatment, the levels of the HTT mRNA targets were determined from each sample of cell lysate by cDNA synthesis followed by qPCR.
• Cells-to-CT 1-step kit: ThermoFisher A25602, Cells-to-CT lysis reagent: ThermoFisher 4391851C, TaqMan™ Fast Virus 1-Step Master Mix: ThermoFisher 4444436 • GAPDH: VIC-PL, ThermoFisher 4326317E (Assay: Hs99999905_ml)—used for K562/suspension cell lines • GUSB: VIC-PL, ThermoFisher 4326320E (Assay: Hs99999908_ml)—used for K562/suspension cell lines • PPIA: VIC-PL, ThermoFisher 4326316E (Assay: Hs99999904_ml)—used for A673/adherent cell lines
(§2) The A673 cell line was cultured in DMEM with 10% FBS. Cells were diluted with full growth media and plated in a 96-well plate (15,000 cells in 100ul media per well). The plate was incubated at 37° C. with 5% CO2 for 24 hours to allow cells to adhere. An 11-point 3-fold serial dilution of the compounds was made in DMSO then diluted in media in an intermediate plate. Compounds were transferred from the intermediate plate to the cell plate with the top dose at a final concentration of 10 uM in the well. Final DMSO concentration was kept at or below 0.25%. The cell plate was returned to the incubator at 37° C. with 5% CO2 for an additional 24 hours.
(§3) The K562 cell line was cultured in IMDM with 10% FBS. For K562, cells were diluted with full growth media and plated in either a 96-well plate (50,000 cells in 50 uL media per well) or a 384-well plate (8,000-40,000 cells in 45 uL media per well). An 11-point 3-fold serial dilution of the compounds were made in DMSO then diluted in media in an intermediate plate. Compound was transferred from the intermediate plate to the cell plate with the top dose at a final concentration of 10 uM in the well. Final DMSO concentration was kept at or below 0.25%. Final volume was 100 uL for 96-well plate and 50 uL for 384-well plate. The cell plate was then placed in an incubator at 37° C. with 5% CO2 for 24 hours.
The cells were then gently washed with 50 uL-100 uL cold PBS before proceeding to addition of lysis buffer. 30 uL-50 uL of room temperature lysis buffer with DNAse I (and optionally RNAsin) was added to each well. Cells were shaken/mixed thoroughly at room temperature for 5-10 minutes for lysis to take place and then 3 uL-5 uL of room temperature stop solution was added and wells were shaken/mixed again. After 2-5 minutes, the cell lysate plate was transferred to ice for RT-qPCR reaction setup. The lysates could also be frozen at −80° C. for later use.
In some cases, a direct lysis buffer was used. An appropriate volume of 3X lysis buffer (10 mM Tris, 150 mM NaCl, 1.5%-2.5% Igepal and 0.1-1 U/uL RNAsin, pH 7.4) was directly added to either K562 or A673 cells in media and mixed by pipetting 3 times. The plates were then incubated at room temperature with shaking/rocking for 20-50 minutes to allow for lysis to take place. After this time, the cell lysate plate was transferred to ice to set up for the RT-qPCR reactions. The lysates could also be frozen at −80° C. for later use. […]

HTT CJ mRNA = assay: Gene panel canonical junction qPCR assay, HTT; settings: Table 6, decrease in CJ mRNA, read-out: HTT IC50 (decrease in CJ mRNA levels)
Protocol: as §1, §2, §3
(§4) The data analysis was performed by first determining the ΔCt vs the housekeeper gene. This ΔCt was then normalized against the DMSO control (ΔΔCt) and converted to RQ (relative quantification) using the 2^(−ΔΔCt) equation. The RQ were then converted to a percentage response by arbitrarily setting an assay window of 3.5 ΔCt for HTT-CJ and an assay window of 9 ΔCt for HTT-AJ. […] The percentage response was then fitted to the 4 parametric logistic equation to evaluate the concentration dependence of compound treatment. The increase in AJ mRNA is reported as AC50 (compound concentration having 50% response in AJ increase) while the decrease in CJ mRNA levels is reported as IC50 (compound concentration having 50% response in CJ decrease).
(§5) Additional studies were carried out for a larger panel of genes using the protocol provided above. The junction between flanking upstream and downstream exons was used to design canonical junction qPCR assays. At least one of the forward primer, reverse primer or the CY5-labeled 5′ nuclease probe (with 3′ quencher such as ZEN/Iowa Black FQ) was designed to overlap with the exon junction to capture the CJ mRNA transcript. BLAST was used to confirm the specificity of the probeset and parameters such as melting temperature, GC content, amplicon size, and primer dimer formation are considered during their design. Data for the decrease in CJ mRNA levels for three exemplary genes (HTT, SMN2, and Target C) analyzed in this panel are reported as IC50 (compound concentration having […] in CJ decrease).

SMN2 CJ mRNA = assay: Gene panel canonical junction qPCR assay, SMN2; settings: Table 6, decrease in CJ mRNA, read-out: SMN2 IC50 (decrease in CJ mRNA levels)
Protocol: as §1, §2, §3, §4, §5

Target C CJ mRNA = assay: Gene panel canonical junction qPCR assay, Target C; settings: Table 6, decrease in CJ mRNA, read-out: Target C IC50 (decrease in CJ mRNA levels)
Protocol: as §1, §2, §3, §4, §5

Row | Compound | IC50 (HTT mRNA) [nM] | AC50 (HTT mRNA) [nM] | IC50 (HTT CJ mRNA) [nM] | IC50 (SMN2 CJ mRNA) [nM] | IC50 (Target C CJ mRNA) [nM]
1 | Cc1cn2nc(-c3nc4sc(C5CCNC5)cc4s3)cc(C)c2n1 (stereo not drawn) [Compound 197, 3-(2-{2,8-dimethylimidazo[1,2-b]pyridazin-6-yl}thieno [2,3-d][1,3]thiazol-5-yl)pyrrolidine] | 100 to 1000 | 100 to 1000 | 100 to 1000 | 100 to 1000 | 1000 to 10000
2 | Cc1cn2nc(-c3nc4sc(C5=CCNCC5)cc4s3)cc(C)c2n1 [Compound 198, 4-(2-{2,8-dimethylimidazo[1,2-b]pyridazin-6-yl}thieno[2,3-d][1,3]thiazol-5-yl)-1,2,3,6-tetrahydropyridine] | < 100 | 100 to 1000 | < 100 | < 100 | 1000 to 10000
3 | Cn1cc2cc(-c3cc4cn(C5CCNCC5)nc4s3)ccc2n1 [Compound 207] | 100 to 1000 | 100 to 1000 | 100 to 1000 | < 100 | 1000 to 10000
4 | Cn1cc2cc(-c3nc4sc(N5CCC(NC(C)(C)C)C5)cc4s3)cc(F)c2n1 (stereo not drawn) [Compound 143, N-tert-butyl-1-[2-(7-fluoro-2-methylindazol-5-yl)thieno[2,3-d][1,3]thiazol-5-yl]pyrrolidin-3-amine] | 1000 to 10000 | 1000 to 10000 | 1000 to 10000 | 100 to 1000 | 1000 to 10000
5 | Cn1cc2cc(-c3nc4sc(C5CCNCC5)cn4n3)cc(F)c2n1 [Compound 103, 7-fluoro-2-methyl-5-[5-(piperidin-4-yl)-[1,2,4]triazolo[3,2-b][1,3]thiazol-2-yl]indazole] | > 10000 | > 10000 | > 10000 | > 10000 | > 10000
6 | Cn1cc2cc(-c3cc4cn([C@@H]5CCNC[C@H]5F)nc4s3)cc(F)c2n1 [Compound 187] | < 100 | < 100 | < 100 | < 100 | 100 to 1000
7 | Cc1cn2cc(-c3cc4cn(C5CCNCC5)nc4s3)cc(C)c2n1 [Compound 216] | < 100 | < 100 | < 100 | < 100 | 100 to 1000
8 | Cn1cc2cc(-c3nc4sc(N5CCC56CCCNC6)cc4s3)cc(F)c2n1 (stereo not drawn) [Compound 202, 1-[2-(7-fluoro-2-methylindazol-5-yl)thieno[2,3-d][1,3]thiazol-5-yl]-1,6-diazaspiro[3.5]nonane] | > 10000 | > 10000 | > 10000 | 1000 to 10000 | 1000 to 10000
9 | Cc1cn2cc(-n3cc4cc(C5CCNCC5)sc4n3)cc(Cl)c2n1 [Compound 165] | < 100 | < 100 | < 100 | < 100 | 100 to 1000
10 | Cc1cn2nc(-c3nc4sc(C5CCNCC5)cc4s3)cc2c(C)n1 [Compound 133, 4-(2-[4,6-dimethylpyrazolo[1,5-a]pyrazin-2-yl]thieno[2,3-d][1,3]thiazol-5-yl)piperidine] | 100 to 1000 | 100 to 1000 | 100 to 1000 | 100 to 1000 | 100 to 1000
11 | Cn1cc2cc(-c3nc4sc(N5CCNCC5)cc4s3)cc(F)c2n1 [Compound 134, 7-fluoro-2-methyl-5-[5-(piperazin-1-yl)thieno[2,3-d][1,3]thiazol-2-yl]indazole] | 100 to 1000 | < 100 | 100 to 1000 | < 100 | 100 to 1000
12 | Cc1nc2c(F)cc(-c3nc4sc(C5CCNCC5)cc4s3)cc2o1 [Compound 132, 4-fluoro-2-methyl-6-[5-(piperidin-4-yl)thieno[2,3-d][1,3]thiazol-2-yl]-1,3-benzoxazole] | < 100 | < 100 | < 100 | < 100 | 100 to 1000
13 | Cn1cc2cc(-c3nc4sc(N5CCNC(C)(C)C5)cc4s3)cc(F)c2n1 [Compound 142, 5-[5-(3,3-dimethylpiperazin-1-yl)thieno[2,3-d][1,3]thiazol-2-yl]-7-fluoro-2-methylindazole] | 100 to 1000 | 100 to 1000 | 100 to 1000 | < 100 | 1000 to 10000
14 | Cc1cn2cc(-c3nc4sc(C5CCNCC5)cc4s3)cc(F)c2n1 [Compound 130, 4-(2-[8-fluoro-2-methylimidazo[1,2-a]pyridin-6-yl]thieno[2,3-d][1,3]thiazol-5-yl)piperidine hydrochloride] | < 100 | < 100 | < 100 | < 100 | < 100
15 | Cn1cc2cc(-c3cc4cn([C@H]5CCNC[C@H]5F)nc4s3)cc(F)c2n1 (stereo in doubt) [Compound 182] | < 100 | 100 to 1000 | < 100 | < 100 | 100 to 1000

Source: patent US20240239811A1, “5-(5-(PIPERIDIN-4-YL)THIENO[3,2-C]PYRAZOL-2-YL]INDAZOLE DERIVATIVES AND RELATED COMPOUNDS AS MODULATORS FOR SPLICING NUCLEIC ACIDS AND FOR THE T” (REMIX THERAPEUTICS INC., priority 2020, published 2024)
